The values that follow come from PMC3260207, “Site-Directed Mutations and the Polymorphic Variant Ala160Thr in the Human Thromboxane Receptor Uncover a Structural Role for Transmembrane Helix 4” (PLoS ONE, 2012).

Residue numbers refer to the chain shown, from its start.

The target of one assay is T1, TP G164A mutant (Homo sapiens, UniProt P21731, G164A).
T1 construct: expressed in transfected cells; HEK293T (calcium assays)
T1 sequence (P21731 1-343 G164A): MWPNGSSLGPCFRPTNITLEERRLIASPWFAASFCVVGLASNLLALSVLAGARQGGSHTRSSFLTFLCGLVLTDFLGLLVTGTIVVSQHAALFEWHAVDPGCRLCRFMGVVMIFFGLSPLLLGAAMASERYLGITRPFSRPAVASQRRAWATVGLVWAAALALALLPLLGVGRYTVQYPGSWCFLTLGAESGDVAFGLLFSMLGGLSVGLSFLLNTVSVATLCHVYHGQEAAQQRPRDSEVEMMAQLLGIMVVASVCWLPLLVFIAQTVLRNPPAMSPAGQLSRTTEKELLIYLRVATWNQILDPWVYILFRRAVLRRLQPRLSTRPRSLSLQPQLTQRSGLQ
The experiment in a line: Saturation radioligand binding with [3H] SQ 29,548, membranes. The conditions noted are these: picomoles of TP per milligram of total membrane protein, mean ± S.E. How it is done:
(§1) Amino acid substitutions were introduced into the synthetic TPα gene carried by the expression vector pMT4 as described previously, [29]. DNA sequences of all the mutated genes were verified by automated DNA sequencing. To minimize variations in transfection efficiency, the total amount transfected DNA was kept constant in all cases at 1 µg of DNA per 7×10^5 cells. The wild type TP or mutant genes were expressed in COS-1 cells using a DEAE-dextran based transient transfection method, [29], and in HEK293T cells using lipofectamine 2000 (Invitrogen). Except unless specified, the membranes prepared from COS-1 cells were used for radioligand binding assays and immunoblots. For intracellular calcium determination assays and immunofluorescence imaging, HEK293T cells were used. For transient transfections of HEK293T cells using the plasmid pMT4, lipofectamine 2000 (Invitrogen) mediated transfection was used as described by the manufacturer. Membranes were prepared using Buffers A and B and as described previously, [29]. The protein concentration in the resuspended membrane pellet was determined using a modified DC protein assay kit from Bio-Rad Laboratories (Hercules, CA).
(§2) These were carried out in Buffer C for 60 min at room temperature, using 2 to 20 µg of membrane protein and different concentrations of [^3H] […] Binding of [^3H] […] Competition binding assays were performed using 4 nM [^3H] […] Binding was terminated by filtering under vacuum on GF/A filters (Millipore). Filter-bound radioactivity was measured using a liquid scintillation counter. Equilibrium dissociation constants (Kd) were determined from saturation isotherms using PRISM software version 5.0 (GraphPad Software Inc, San Diego, CA, USA). The Ki values were calculated from the IC50, using the equation of Cheng and Prusoff by PRISM software version 5.0.

The target of another assay is T2, TP V110A mutant (Homo sapiens, UniProt P21731, V110A).
T2 construct: expressed in transfected cells; HEK293T (calcium assays)
T2 sequence (P21731 1-343 V110A): T1 sequence (P21731 1-343 G164A) with V110A, A164G
The assay is described as above. The settings on record: picomoles of TP per milligram of total membrane protein, mean ± S.E. How it is done:
as §1, §2

In the next assay the target is T3, TP A160S mutant (Homo sapiens, UniProt P21731, A160S).
T3 construct: expressed in transfected cells; HEK293T (calcium assays)
T3 sequence (P21731 1-343 A160S): T1 sequence (P21731 1-343 G164A) with A160S, A164G
In words: Heterologous competition binding, unlabeled U46619 against 4 nM [3H] SQ 29,548. The conditions noted are these: read-out: Ki of agonist U46619, 4 nM [3H] SQ 29,548, 2 hr room temperature, Cheng-Prusoff from IC50. The protocol: as §1
as §2, with “5.0. Where applicable, statistical significance of the data was evaluated using analysis of variance (ANOVA) and/or unpaired t test.” for “5.0.”

The target of assay [1] is T4, TP A160T mutant (nsSNP variant) (Homo sapiens, UniProt P21731, A160T).
T4 construct: expressed in transfected cells; HEK293T (calcium assays)
T4 sequence (P21731 1-343 A160T): T1 sequence (P21731 1-343 G164A) with A160T, A164G
The assay is described as above. The settings on record: read-out: Ki of agonist U46619, 4 nM [3H] SQ 29,548, 2 hr room temperature, Cheng-Prusoff from IC50. The protocol: as §1
as §2, with “5.0. Where applicable, statistical significance of the data was evaluated using analysis of variance (ANOVA) and/or unpaired t test.” for “5.0.”

A further assay concerns the target T5, TP A160V mutant (Homo sapiens, UniProt P21731, A160V).
T5 construct: expressed in transfected cells; HEK293T (calcium assays)
T5 sequence (P21731 1-343 A160V): T1 sequence (P21731 1-343 G164A) with A160V, A164G
Described as above. The settings on record: read-out: Ki of agonist U46619, 4 nM [3H] SQ 29,548, 2 hr room temperature, Cheng-Prusoff from IC50. How it is done: as §1
as §2, with “5.0. Where applicable, statistical significance of the data was evaluated using analysis of variance (ANOVA) and/or unpaired t test.” for “5.0.”

In the case of `O=C(O)CCC/C=C\C[C@@H]1[C@H](CNNC(=O)Nc2ccccc2)[C@H]2CC[C@@H]1O2` [SQ 29,548], the results for the “Bmax, binding maximum of the ligand SQ 29,548 for the receptor” value on TP G164A mutant and at TP V110A mutant were 6.3 ± 0.4 pmol/mg and 1.8 ± 0.3 pmol/mg, respectively.

Regarding `CCCCC[C@H](O)/C=C/[C@@H]1[C@@H](C/C=C\CCCC(=O)O)[C@H]2CO[C@@H]1C2` [U46619], the values for the Ki (at TP A160S mutant; in assay [1]; at TP A160V mutant) were 1520 nM, 720 nM and 1510 nM, respectively.
